# Measurements taken from publication PMC8708274, “Unveiling the Membrane and Cell Wall Action of Antimicrobial Cyclic Lipopeptides: Modulation of the Spectrum of Activity” (Pharmaceutics, 2021).
# Like-named read-outs stand apart in the source and are kept apart here. Positions of bridges follow the written chain, without caps; N, C: chain ends. Non-standard residues stand in square brackets, D forms with d. Residues, ends and D or L forms follow the SMILES beside them. *: point of attachment. Lauroyl = CCCCCCCCCCCC(=O)*; Decanoyl = CCCCCCCCCC(=O)*; dNle = CCCC[C@@H](N)C(=O)O; Nle = CCCC[C@H](N)C(=O)O; Dab = NCC[C@H](N)C(=O)O
# What was measured:
# [1] = Kinetics of insertion into monolayers; type: binding; details: 25 min after injection, 10 mM Tris pH 7.4, 25 °C, average of three independent experiments (error < 10%); for Increase in surface pressure (Δπ), POPE/POPG: POPE/POPG 6:4, initial pressure 32 mN·m^−1, peptide 0.48 μM; for Increase in surface pressure (Δπ), POPC / Increase in surface pressure (Δπ), POPG: initial pressure 32 mN·m^−1, peptide 0.48 μM
# Experimental: (§1) Monolayer studies were performed at room temperature (25 °C) on a monolayer system (NIMA Technology, Coventry, UK) by using a cylindrical PTFE (Teflon®, Wilmington, DE, USA) trough (5 cm diameter) containing a continuously stirred aqueous phase (12 mL, 10 mM Tris pH 7.4) and a Wilhelmy platinum plate connected to an electrobalance. The system was enclosed in a Plexiglass box to reduce surface contamination, and before each run, the plate and the trough were cleaned with hot water at >70 °C to avoid carryover of lipid or peptide. Monolayers of POPG, POPE/POPG (6:4), POPC, or LPS were formed by applying small drops of the lipid stock solutions in CHCl3 on the aqueous subphase with a microsyringe (Hamilton Co., Reno, NV, USA) to achieve a surface pressure of 32 mN·m^−1. After 10 min, allowing for solvent evaporation, a known aliquot of peptide was added without disturbance of the monolayer via an inlet port, and the surface pressure was continuously monitored.
# [2] = Kinetics of insertion into monolayers; type: binding, Salmonella enterica serotype Minnesota Re 595; details: initial pressure 32 mN·m^−1, peptide 0.48 μM, 25 min after injection, 10 mM Tris pH 7.4, 25 °C, average of three independent experiments (error < 10%)
# Experimental: as §1
# [3] = tested on: Escherichia coli ATTC 25922; type: cell-based
# Experimental: (§2) The minimal peptide concentration required to prevent the growth of a given test organism was determined after incubation overnight at 37 °C and was defined as the MIC. Activity was determined in representative bacteria, Escherichia coli ATTC 25922, Pseudomonas aeruginosa ATTC 27853, and Staphylococcus aureus ATTC 25923, using the broth microdilution method. Serial-two-fold dilutions of peptide (from 0.06 to 32 μg/mL) were performed in Mueller–Hinton broth (MHB) culture medium in sterile 96-well polypropylene microtiter plates inoculated with a final concentration of 5 × 10^5 CFU·mL^−1 of bacteria in each well. Bacteria were in the pre-exponential phase. Each determination was done by triplicate. In order to be considered acceptable, the three MIC results have to differ in only in one well, and the result was always given as the higher of the three. Drug-free and microorganism-free wells were used as positive and negative controls, respectively. Bacterial growth was visually determined on the basis of turbidity.
# [4] = tested on: Staphylococcus aureus ATTC 25923; type: cell-based
# Experimental: as §2
# [5] = tested on: Pseudomonas aeruginosa ATTC 27853; type: cell-based
# Experimental: as §2
# [6] = broth microdilution, MHB, 5 × 10^5 CFU/mL, overnight 37 °C, triplicate, higher of the three
# [7] = value in brackets, broth microdilution, MHB, overnight 37 °C, triplicate
Structure (SMILES),"Increase in surface pressure (Δπ), POPE/POPG [1]","Increase in surface pressure (Δπ), POPC [1]","Increase in surface pressure (Δπ), POPG [1]","Increase in surface pressure (Δπ), LPS [2]",MIC EC ([3]; ATTC 25922),"MIC EC [3, 6]",MIC SA ([4]; ATTC 25923),"MIC SA [4, 6]",MIC PA ([5]; ATTC 27853),"MIC PA [5, 6]","MIC SA [4, 7]","MIC PA [5, 7]"
CCCCCCCCCCCC(=O)N[C@@H](CCN)C(=O)N[C@H](C(=O)N[C@@H](CCN)C(=O)N[C@H]1CSSC[C@H](C(N)=O)NC(=O)[C@H](CCN)NC(=O)[C@H](CCN)NC(=O)[C@H](CC(C)C)NC(=O)[C@@H](CC(C)C)NC(=O)[C@H](CCN)NC1=O)[C@@H](C)O [spE-4] (Lauroyl-[Dab]T[Dab]C[Dab][dL]L[Dab][Dab][dC]-NH2; disulfide 4-10),9.1 mN·m^−1,2.1 mN·m^−1,5.8 mN·m^−1,11.4 mN·m^−1,6.5 µM,8 µg/mL,6.5 µM,8 µg/mL,0.81 µM,1 µg/mL,–,–
CCCCCCCCCC(=O)N[C@@H](CCN)C(=O)N[C@H](C(=O)N[C@@H](CCN)C(=O)N[C@H]1CSSC[C@H](C(N)=O)NC(=O)[C@H](CCN)NC(=O)[C@H](CCN)NC(=O)[C@H](CCCC)NC(=O)[C@@H](CCCC)NC(=O)[C@H](CCN)NC1=O)[C@@H](C)O [spE-7] (Decanoyl-[Dab]T[Dab]C[Dab][dNle][Nle][Dab][Dab][dC]-NH2; disulfide 4-10),6.8 mN·m^−1,1.4 mN·m^−1,8.2 mN·m^−1,14.2 mN·m^−1,1.7 µM,2 µg/mL,–,8 µg/mL,–,2 µg/mL,6.7 µM,1.7 µM
CCCCCCCCCCCC(=O)N[C@@H](CCN)C(=O)N[C@H](C(=O)N[C@@H](CCN)C(=O)N[C@H]1CSSC[C@H](C(N)=O)NC(=O)[C@H](CCN)NC(=O)[C@H](CCN)NC(=O)[C@H](CCCC)NC(=O)[C@@H](CCCC)NC(=O)[C@H](CCN)NC1=O)[C@@H](C)O [spE-8] (Lauroyl-[Dab]T[Dab]C[Dab][dNle][Nle][Dab][Dab][dC]-NH2; disulfide 4-10),9.8 mN·m^−1,1.3 mN·m^−1,7.4 mN·m^−1,12.5 mN·m^−1,3.3 µM,4 µg/mL,3.3 µM,4 µg/mL,3.3 µM,4 µg/mL,–,–
